Experimental data reported in patent publication US7517658B2, “Methods for preparing compositions using a SNORF33 receptor” (H. Lundbeck A/S, priority 1999, dated 2009).
“And” between values parts separate entries of the source, which are not always exact repeats. Equal values may be shown once. Read-outs that look alike come from different tables or passages of the source.

How the values were obtained:
rSNORF33 [1] = target: T1, rSNORF33 (Rattus norvegicus, UniProt Q923Y9); experiment: [3H]-TYR binding (saturation and displacement) to rSNORF33-transfected COS-7 membranes; parameters: expressed in transfected cells; host or cells: COS-7 (transient); settings: for Ki: rSNORF33 in transfected COS-7 membranes, 2–4 experiments, read-out: Mean Ki ± S.D.M., displacement of [3H]-tyramine
Method: (§1) Radioligand binding assays were performed by diluting membranes prepared from cells expressing the receptor (with co-expression of the rat G-protein alpha S subunit for human SNORF33) in 25 mM Gly-Gly buffer (Sigma, pH=7.4 @ 0° C.) containing 5 mM ascorbate and 10 μM pargyline (final protein concentration in assay=100-300 μg/ml). Membranes were then incubated with either [^3H]-TYR (American Radiochemicals, specific activity 60 mCi/μmole) or [^3H]-T (Amersham, specific activity 98 mCi/μmole) in the presence or absence of competing ligands on ice for 30 min in a total volume of 250 μl in 96 well microtiter plates. The bound ligand was separated from free by filtration through GF/B filters presoaked in 0.5% polyethyleneimine (PEI), using Tomtec (Wallac) or Brandel Cell Harvester vacuum filtration device. After addition of Ready Safe (Beckman) scintillation fluid, bound radioactivity was quantitated using a Trilux (Wallac) scintillation counter (approximately 20% counting efficiency of bound counts). Data was fit to non-linear curves using GraphPad Prism.
(§2) In this manner, agonist or antagonist compounds that bind to the receptor may be identified as they inhibit the binding of the labeled ligand to the membrane protein of cells expressing the said receptor. Non-specific binding was defined as the amount of radioactivity remaining after incubation of membrane protein in the presence of 10 μM of the unlabeled amine corresponding to the radioligand used. In equilibrium saturation binding assays, membrane preparations or intact cells transfected with the receptor are incubated in the presence of increasing concentrations of the labeled compound to determine the binding affinity of the labeled ligand. The binding affinities of unlabeled compounds may be determined in equilibrium competition binding assays, using a fixed concentration of labeled compound in the presence of varying concentrations of the displacing ligands.

hSNORF33 = target: T2, hSNORF33 (Homo sapiens, UniProt Q96RJ0); experiment: [3H]-TYR binding (saturation and displacement) to human SNORF33 COS-7 membranes; parameters: expressed in transfected cells; host or cells: COS-7 (membranes); settings: for Ki: human SNORF33 in transfected COS-7 membranes
T2 sequence (Q96RJ0 1-339): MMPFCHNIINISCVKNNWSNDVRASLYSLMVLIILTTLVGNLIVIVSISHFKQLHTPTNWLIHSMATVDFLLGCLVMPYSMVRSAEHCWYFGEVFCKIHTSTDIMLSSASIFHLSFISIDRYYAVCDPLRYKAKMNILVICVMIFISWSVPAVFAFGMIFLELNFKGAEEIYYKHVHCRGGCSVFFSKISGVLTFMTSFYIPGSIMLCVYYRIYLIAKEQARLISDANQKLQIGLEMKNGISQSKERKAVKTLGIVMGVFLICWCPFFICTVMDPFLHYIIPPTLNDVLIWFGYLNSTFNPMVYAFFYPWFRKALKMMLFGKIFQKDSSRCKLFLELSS
Method: as §1, with “[^3H]-TYR and [^3H]-T binding assays were performed essentially as described by Mallard et al. (1992), with minor modifications. Radioligand” for “Radioligand”
as §2

rSNORF33 [2] = target: T1, rSNORF33; experiment: Intracellular cAMP release in rSNORF33-transfected COS-7 cells; format: cell-based; parameters: expressed in transfected cells; host or cells: COS-7 (transient); settings: for Agonist activity at cloned rSNORF33 receptor: data not shown
Method: The receptor-mediated stimulation or inhibition of cyclic AMP (cAMP) formation may be assayed in cells expressing the mammalian receptors. Cells are plated in 96-well plates or other vessels and preincubated in a buffer such as HEPES buffered saline (NaCl (150 mM), CaCl2 (1 mM), KCl (5 mM), glucose (10 mM)) supplemented with a phosphodiesterase inhibitor such as 5 mM theophylline, with or without protease inhibitor cocktail (For example, a typical inhibitor cocktail contains 2 μg/ml aprotinin, […] leupeptin, and 10 μg/ml phosphoramidon.) for 20 min at 37° C., in 5% CO2. Test compounds are added with or without […] forskolin and incubated for an additional 10 min at 37° C. The medium is then aspirated and the reaction stopped by the addition of 100 mM HCl or other methods. The plates are stored at 4° C. for 15 min, and the cAMP content in the stopping solution is measured by radioimmunoassay. Radioactivity may be quantified using a gamma counter equipped with data reduction software. Specific modifications may be performed to optimize the assay for the receptor or to alter the detection method of cAMP.
COS-7 cells were transiently transfected with rSNORF33 gene using the calcium phosphate method and plated in 96-well plates. 48 hours after transfection, cells were washed twice with Dulbecco's phosphate buffered saline (PBS) supplemented with 10 mM HEPES, 10 mM glucose, 5 mM theophylline and 10 μM pargyline and were incubated in the same buffer for 20 min at 37° C., in […] 5% CO2. Test compounds were added and cells were incubated for an additional 10 min at 37° C. The medium was then aspirated and the reaction stopped by the addition of 100 mM HCl. The plates were stored at −20° C. for 2-5 days. For cAMP measurement, plates were thawed and the cAMP content in each well was measured by radioimmunoassay cAMP Scintillation Proximity Assay (Amersham Pharmacia Biotech). Radioactivity was quantified using microbeta Trilux counter (Wallac).

rSNORF33 [3] = target: T1, rSNORF33; experiment: Cl- currents in Xenopus oocytes expressing rSNORF33 and CFTR (voltage clamp); format: cell-based; settings: for Cl- currents elicited: at 100 μM
Method: Female Xenopus laevis (Xenopus-1, Ann Arbor, Mich.) were anesthetized in 0.2% tricain (3-aminobenzoic acid ethyl ester, Sigma Chemical Corp.) and a portion of ovary was removed using aseptic technique (Quick and Lester, 1994). Oocytes were defolliculated, using 3 mg/ml collagenase (Worthington Biochemical Corp., Freehold, N.J.) in a solution containing 82.5 mM NaCl, 2 mM KCl, 1 mM MgCl2 and 5 mM HEPES, pH 7.5, and injected (Nanoject, Drummond Scientific, Broomall, Pa.) 24 h later with 50-70 nl of individual mRNAs or mRNA mixtures (see below).
Elevation of intracellular cAMP is monitored in oocytes by expression of the cystic fibrosis transmembrane conductance regulator (CFTR) whose Cl^−-selective pore opens in response to phosphorylation by protein kinase A (Riordan, 1993). To prepare RNA transcripts for expression in oocytes, a template was created by PCR using 5′ and 3′ primers derived from the published sequence of the CFTR gene (Riordan, 1993). The 5′ primer included the sequence coding for T7 polymerase so that transcripts could be generated directly from the PCR products without cloning. Oocytes were injected with 10 ng of CFTR mRNA in addition to 10-15 ng mRNA for SNORF33. Electrophysiological recordings were made after a 2-3 day incubation at 18° C.
Dual electrode voltage clamp (“GeneClamp”, Axon Instruments Inc., Foster City, Calif.) was performed using 3 M KCl-filled glass microelectrodes having resistances of 1-3 Mohms. Unless otherwise specified, oocytes were voltage clamped at a holding potential of −80 mV. During recordings, oocytes were bathed in continuously flowing (1-3 ml/min) medium containing 96 mM NaCl, 2 mM KCl, 1.8 mM CaCl2, 1 mM MgCl2, and 5 mM HEPES, pH 7.5 (ND96). […] Experiments were carried out at room temperature. All values are expressed as mean±standard error of the mean.

rSNORF33 [4] = target: T1, rSNORF33; experiment: as above; format: cell-based; settings: test compound 100 μM except where noted; 100 nM TYR
mouse SNORF33 = target: T3, mouse SNORF33 (Mus musculus, UniProt Q923Y8); experiment: [3H]-TYR binding (saturation and displacement) to mouse SNORF33 COS-7 membranes; settings: for Ki: mouse SNORF33, displacement of [3H]TYR, n=2, read-out: Average Ki
T3 construct: expressed in transfected cells; host or cells: COS-7 (membranes)
Method: as §1, with “[^3H]-TYR and [^3H]-T binding assays were performed essentially as described by Mallard et al. (1992), with minor modifications. Radioligand” for “Radioligand”
as §2

[5] = read-out: Mean Ki ± S.D.M., displacement of [3H]-tyramine
[6] = transiently transfected COS-7 cells, 3–8 experiments, read-out: Mean EC50 ± S.E.M., stimulation of rSNORF33 measured by intracellular cAMP release
[7] = read-out: Ki, displacement of [3H]-tyramine

T3 sequence (Q923Y8 whole entry): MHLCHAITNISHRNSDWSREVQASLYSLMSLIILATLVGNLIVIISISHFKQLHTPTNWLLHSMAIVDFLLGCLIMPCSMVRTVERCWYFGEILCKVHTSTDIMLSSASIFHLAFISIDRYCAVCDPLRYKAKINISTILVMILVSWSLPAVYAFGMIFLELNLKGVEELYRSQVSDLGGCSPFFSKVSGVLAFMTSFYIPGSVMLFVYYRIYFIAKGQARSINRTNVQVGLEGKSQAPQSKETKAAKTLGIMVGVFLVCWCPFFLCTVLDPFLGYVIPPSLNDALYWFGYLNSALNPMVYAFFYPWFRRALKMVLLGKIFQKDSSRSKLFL
T1 sequence (Q923Y9 whole entry): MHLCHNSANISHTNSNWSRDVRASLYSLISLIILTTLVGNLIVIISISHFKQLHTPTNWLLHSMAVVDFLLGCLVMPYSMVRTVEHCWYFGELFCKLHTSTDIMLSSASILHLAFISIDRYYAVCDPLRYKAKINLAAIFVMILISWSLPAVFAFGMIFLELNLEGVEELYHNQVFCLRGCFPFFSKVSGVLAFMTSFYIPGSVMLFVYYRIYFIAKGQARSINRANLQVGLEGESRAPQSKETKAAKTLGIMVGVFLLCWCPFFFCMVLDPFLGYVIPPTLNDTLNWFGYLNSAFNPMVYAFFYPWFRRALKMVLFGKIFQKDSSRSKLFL

## NCCc1cccc(O)c1 [3-OH-PEA]
rSNORF33 [1]
  Ki: 0.529 ± 0.236 µM
hSNORF33; [5]
  Ki: 0.079 ± 0.016 µM

## NCCc1c[nH]c2ccc(F)cc12 [5-Fluoro-Tryptamine]
rSNORF33 [2]; [6]
  EC50: 0.232 ± 0.038 µM

## COc1ccc2[nH]cc(CCN)c2c1 [5-Methoxy-Tryptamine]
rSNORF33 [2]; [6]
  EC50: 0.414 ± 0.161 µM
rSNORF33 [1]
  Ki: 0.209 ± 0.068 µM

## Cc1ccc2[nH]cc(CCN)c2c1 [5-Methyl-Tryptamine]
rSNORF33 [2]; [6]
  EC50: 0.752 ± 0.285 µM

## CNCCCN1c2ccccc2CCc2ccccc21 [Desipramine]
rSNORF33 [2]; [6]
  EC50: 4.3 ± 1.87 µM

## NCCc1ccc(O)c(O)c1 [Dopamine (DA), Dopamine]
rSNORF33 [3]
  Cl- currents elicited: more weakly

## NCCC(=O)c1ccccc1N [Kynuramine]
rSNORF33 [2]; [6]
  EC50: 0.09 ± 0.02 µM
rSNORF33 [1]
  Ki: 0.485 ± 0.009 µM
hSNORF33; [5]
  Ki: 1.39 ± 0.81 µM

## CN[C@@H](C)Cc1ccccc1 [Methamphetamine]
rSNORF33 [2]; [6]
  EC50: 0.115 ± 0.066 µM
rSNORF33 [1]
  Ki: 0.391 ± 0.246 µM
hSNORF33; [5]
  Ki: 0.189 ± 0.102 µM

## NC[C@H](O)c1ccc(O)c(O)c1 [NE, norepinephrine]
rSNORF33 [2]
  Agonist activity at cloned rSNORF33 receptor: inactive

## CC(COc1ccccc1)N(CCCl)Cc1ccccc1 (stereo not drawn) [Phenoxybenzamine]
rSNORF33 [4]
  Antagonism of TYR stimulation of rSNORF33: irreversible inhibition

## CC(N)C(O)c1ccccc1 (stereo not drawn) [Phenylpropanolamine (PPA), Phenylpropanolamine]
rSNORF33 [2]
  EC50: 1.8 ± 1.38 µM

## NCCc1c[nH]c2ccc(O)cc12 [Serotonin (5-HT), 5-Hydroxytryptamine]
rSNORF33 [3]
  Cl- currents elicited: more weakly
rSNORF33 [3]; oocytes expressing rSNORF33 and CFTR, -80 mV, mean ± S.E.M., read-out: Calculated EC50, Cl- current
  EC50: 3.776 ± 0.00317 µM
rSNORF33 [2]; cAMP assay
  Fold less potent than the three trace amines (TYR, PEA, T) in activating rSNORF33: 70 fold
rSNORF33 [2]; [6]
  EC50: 1.24 ± 0.526 µM
rSNORF33 [1]
  Ki: 0.976 ± 0.12 µM

## NCCc1ccc(O)cc1 [[^3H]-TYR]
Mouse SNORF33; at about 15 nM [3H]-TYR, mouse SNORF33
  Specific binding as % of total binding: approximately 94%
Mouse SNORF33; mouse SNORF33 membranes
  Bmax, saturation binding: 1090 fmol/mg protein and 848 fmol/mg protein
rSNORF33 [1]; 20 nM radioligand, rSNORF33
  Specific binding: 90%
rSNORF33 [1]; rSNORF33 COS-7 membranes, n=2
  Bmax, saturation binding: 1400 fmol/mg protein and 1164 fmol/mg protein
  Kd: 0.0125 µM and 0.0148 µM
hSNORF33; at about 15 nM [3H]-TYR, human SNORF33
  Specific binding as % of total binding: ~70%
hSNORF33; human SNORF33 membranes
  Bmax, saturation binding: 440 fmol/mg protein and 603 fmol/mg protein

## c1ccc(C2CC2)c(OCC2=NCCN2)c1 [cirazoline]
rSNORF33 [3]; test compound 100 μM except where noted, 100 nM TYR (EC80)
  Inhibition of the response to TYR: greater than 90%

## NCCc1c[nH]cn1 [histamine]
rSNORF33 [2]
  Agonist activity at cloned rSNORF33 receptor: inactive

## Cl.Cl.Clc1cccc(N2CCNCC2)c1 [m-CPP, 1-(3-chlorophenyl)piperazine dihydrochloride]
Mouse SNORF33
  Ki: 3.55 µM
rSNORF33 [1]
  Ki: 0.083 µM
hSNORF33; human SNORF33, up to 10 μM
  Displacement of [3H]TYR binding: no displacement
hSNORF33; [7]
  Ki: > 10 µM

## CN1C[C@H](CNC(=O)OCc2ccccc2)C[C@@H]2c3cccc4c3c(cn4C)C[C@H]21 [metergoline]
rSNORF33 [4]
  Antagonism of TYR stimulation of rSNORF33: significantly block

## CN1CCN2c3ccccc3Cc3ccccc3C2C1 (stereo not drawn) [mianserin]
rSNORF33 [4]
  Antagonism of TYR stimulation of rSNORF33: did not significantly inhibit

## Cc1ccc(N(CC2=NCCN2)c2cccc(O)c2)cc1 [phentolamine]
rSNORF33 [4]
  Antagonism of TYR stimulation of rSNORF33: agonist effect

## CC(C)NCC(O)COc1cccc2[nH]ccc12 (stereo not drawn) [pindolol]
rSNORF33 [4]
  Antagonism of TYR stimulation of rSNORF33: significantly block

## C1CNCCN1 [piperazine]
Mouse SNORF33
  Ki: 1.95 µM
rSNORF33 [1]
  Ki: 0.082 µM
hSNORF33; [7]
  Ki: > 10 µM

## CC(C)NCC(O)COc1cccc2ccccc12 (stereo not drawn) [propanolol]
rSNORF33 [4]
  Antagonism of TYR stimulation of rSNORF33: significantly block

## COC(=O)[C@H]1[C@H]2C[C@H]3c4[nH]c5ccccc5c4CCN3C[C@H]2CC[C@@H]1O [rauwolscine]
rSNORF33 [4]
  Antagonism of TYR stimulation of rSNORF33: did not significantly inhibit

## COC(=O)[C@@H]1[C@H]2C[C@H]3c4[nH]c5ccccc5c4CCN3C[C@@H]2CC[C@@H]1O [yohimbine]
rSNORF33 [4]
  Antagonism of TYR stimulation of rSNORF33: did not significantly inhibit
